Measured values taken from ChEMBL document CHEMBL4513141, “CO-ADD screening of NIH (USA) - Clinical Collection” (2021).
Values after ≈ are worked out from the molar mass of the structure shown. Structures can show the parent of a compound that is named as a salt.

Experiments:
Klebsiella pneumoniae = experiment: microbe, parasite or virus in culture; settings: ATCC 700603, 18 h, ASSAY_TEST Inhibition of Bacterial Growth, detection method Absorption (OD600), MEDIA CAMHB, plate type 384well, NBS, CORNING #3640
Description: Antibacterial activity against Klebsiella pneumoniae MDR ATCC 70063 (CO-ADD:GN_003); MIC in CAMBH media using NBS plates, by OD(600)

Pseudomonas aeruginosa = experiment: microbe, parasite or virus in culture; settings: ATCC 27853, 18 h, ASSAY_TEST Inhibition of Bacterial Growth, detection method Absorption (OD600), MEDIA CAMHB, plate type 384well, NBS, CORNING #3640
Description: Antibacterial activity against Pseudomonas aeruginosa ATCC 27853 (CO-ADD:GN_042); MIC in CAMBH media using NBS plates, by OD(600)

HEK293 = experiment: cells; assay type: functional, Homo sapiens, ATCC CRL1573; settings: Homo sapiens, ATCC CRL1573, HEK293; ASSAY_TEST Inhibition of Cell Viability; detection method Resazurin; Fluorescence (ex560/em590); MEDIA DMEM with 10% FBS; plate type 384well; TC; CORNING #3712; time 18 hr
Staphylococcus aureus = experiment: microbe, parasite or virus in culture; settings: ATCC 43300, 18 h, ASSAY_TEST Inhibition of Bacterial Growth, detection method Absorption (OD600), MEDIA CAMHB, plate type 384well, NBS, CORNING #3640
Description: Antibacterial activity against Staphylococcus aureus MRSA ATCC 43300 (CO-ADD:GP_020); MIC in CAMBH media, using NBS plates, by OD(600)

Acinetobacter baumannii = experiment: microbe, parasite or virus in culture; settings: ATCC 19606, 18 h, ASSAY_TEST Inhibition of Bacterial Growth, detection method Absorption (OD600), MEDIA CAMHB, plate type 384well, NBS, CORNING #3640
Description: Antibacterial activity against Acinetobacter baumannii ATCC 19606 (CO-ADD:GN_034); MIC in CAMBH media using NBS plates, by OD600

Candida albicans = experiment: microbe, parasite or virus in culture; settings: ATCC 90028, ASSAY_TEST Inhibition of Fungal Growth, detection method Absorption (OD530), plate type 384well, NBS, CORNING #3640
Description: Antifungal activity against Candida albicans ATCC 90028 (CO-ADD:FG_001); MIC in YNB media using NBS plates, by OD630

Escherichia coli = experiment: microbe, parasite or virus in culture; settings: ATCC 25922, 18 h, ASSAY_TEST Inhibition of Bacterial Growth, detection method Absorption (OD600), MEDIA CAMHB, plate type 384well, NBS, CORNING #3640
Description: Antibacterial activity against Escherichia coli ATCC 25922 (CO-ADD:GN_001); MIC in CAMBH media using NBS plates, by OD(600)

Description for Cryptococcus neoformans: Antifungal activity against Cryptococcus neoformans H99 ATCC 208821 (CO-ADD:FG_002); MIC in YNB media using NBS plates, by Resazurin OD(600-570)

| SMILES | MIC (Cryptococcus neoformans) [µM] | MIC (Klebsiella pneumoniae) [µM] | MIC (Pseudomonas aeruginosa) [µM] | CC50 (HEK293) [µM] | MIC (Staphylococcus aureus) [µM] | MIC (Acinetobacter baumannii) [µM] | MIC (Candida albicans) [µM] | MIC (Escherichia coli) [µM] |
| --- | --- | --- | --- | --- | --- | --- | --- | --- |
| CCn1cc(C(=O)O)c(=O)c2ccc(C)nc21 [NALIDIXIC ACID] | > 10 | > 10 | > 10 | > 10 | > 10 | > 10 | > 10 | > 10 |
| Cc1cn([C@H]2C[C@H](N=[N+]=[N-])[C@@H](CO)O2)c(=O)[nH]c1=O [ZIDOVUDINE] | > 10 | 5 (≈ 1.34 µg/mL) | > 10 | > 10 | > 10 | > 10 | > 10 | 5 (≈ 1.34 µg/mL) |
| O=c1[nH]cnc2c1ncn2[C@H]1CC[C@@H](CO)O1 [DIDANOSINE] | > 10 | > 10 | > 10 | > 10 | > 10 | > 10 | > 10 | > 10 |
| Clc1ccc(COC(Cn2ccnc2)c2ccc(Cl)cc2Cl)c(Cl)c1 (centres undefined) [MICONAZOLE NITRATE] | 0.625 | > 10 | > 10 | > 10 | > 10 | > 10 | ≤ 0.0781 | > 10 |
| CC1(C)SC2C(NC(=O)COc3ccccc3)C(=O)N2C1C(=O)O (centres undefined) | > 10 | > 10 | > 10 | > 10 | > 10 | > 10 | > 10 | > 10 |
| Cc1onc(-c2c(Cl)cccc2Cl)c1C(=O)N[C@@H]1C(=O)N2[C@@H]1SC(C)(C)[C@@H]2C(=O)O | > 10 | > 10 | > 10 | > 10 | 0.625 (≈ 0.294 µg/mL) | > 10 | > 10 | > 10 |
| CCN1CCN(c2cc3c(cc2F)c(=O)c(C(=O)O)cn3C2CC2)CC1 [ENROFLOXACIN] | > 10 | 2.5 (≈ 0.899 µg/mL) | 0.312 (≈ 0.112 µg/mL) | > 10 | 0.312 (≈ 0.112 µg/mL) | 5 (≈ 1.8 µg/mL) | > 10 | ≤ 0.0781 |
| Oc1c(Cl)cc(Cl)c2cccnc12 [CHLOROXINE] | 2.5 (≈ 0.535 µg/mL) | > 10 | > 10 | > 10 | > 10 | > 10 | 1.25 (≈ 0.268 µg/mL) | > 10 |
| C[C@@H](c1ncncc1F)[C@](O)(Cn1cncn1)c1ccc(F)cc1F [VORICONAZOLE] | 0.625 (≈ 0.218 µg/mL) | > 10 | > 10 | > 10 | > 10 | > 10 | ≤ 0.0781 | > 10 |
| OC(Cn1cncn1)(Cn1cncn1)c1ccc(F)cc1F [FLUCONAZOLE] | > 10 | > 10 | > 10 | > 10 | > 10 | > 10 | 2.5 (≈ 0.766 µg/mL) | > 10 |
| COc1c(N2C[C@@H]3CCCN[C@@H]3C2)c(F)cc2c(=O)c(C(=O)O)cn(C3CC3)c12 [MOXIFLOXACIN HYDROCHLORIDE] | > 10 | 5 | 0.625 | > 10 | 0.156 | 2.5 | > 10 | ≤ 0.0781 |
| COCc1c(C(C)C)nc(C(C)C)c(/C=C/[C@@H](O)C[C@@H](O)CC(=O)O)c1-c1ccc(F)cc1 [CERIVASTATIN SODIUM] | 5 | > 10 | > 10 | > 10 | > 10 | > 10 | 5 | > 10 |
| COc1c(N2CCNC(C)C2)c(F)cc2c(=O)c(C(=O)O)cn(C3CC3)c12 (centres undefined) [GATIFLOXACIN] | > 10 | 2.5 (≈ 0.939 µg/mL) | 0.625 (≈ 0.235 µg/mL) | > 10 | 0.312 (≈ 0.117 µg/mL) | 1.25 (≈ 0.469 µg/mL) | > 10 | ≤ 0.0781 |
| CCCCCCCCCOc1ccc2[nH]cc(CCN)c2c1 | > 10 | > 10 | > 10 | 4.05 | > 10 | > 10 | > 10 | > 10 |
| CCCCc1oc2ccccc2c1C(=O)c1cc(I)c(OCCN(CC)CC)c(I)c1 [AMIODARONE HYDROCHLORIDE] | 10 | > 10 | > 10 | > 10 | > 10 | > 10 | > 10 |  |
